The source of these data is article PMC10539501 (Nature Communications, 2023).

A short description of data set [1]: PAMPA passive permeability.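 Also: passive permeability across an artificial membrane in 96-well pre-coated PAMPA plates, which lack transporters and efflux systems.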 It is filed as in vitro ADME. The conditions noted are these: Pe. (In general: PAMPA measures passive passage across an artificial lipid membrane.)
Description: Encouraged by this, the passive permeability of the analogs was evaluated using an artificial membrane (PAMPA), which measures permeability of compounds in the absence of transporters and efflux systems[32].
96-well BD Corning® pre-coated PAMPA plates were used following the supplier’s protocol, details in Supplementary Information.
Data set [2] is classed as physicochemical.
Excerpt: Since reduced solvation of S also contributes to the lipophilicity of the thioamidated peptides, we sought to estimate the global desolvation of the macrocyclic peptides, which is affected by solvation of both N(H) and C(S). […] Thus, we evaluated the desolvation potential of the cyclic peptides by determining the distribution coefficients in heptane-ethylene glycol (logDh/e), a solvent system that provides an experimental estimate of desolvation or hydrogen bond potential[38].
The next data set has as its target T1, SSTR2 (Homo sapiens, UniProt P30874).
T1 construct: expressed in transfected cells; host or cells: HEK-293T (CRL-3216)
The data set is described as follows: GloSensor assay, inhibition of forskolin-induced cAMP production. It is filed as cell-based. The conditions noted are these: for binding against SSTR2 (in words): HEK293T cells expressing SSTR2, cAMP GloSensor; for IC50: read-out: IC50 sstr2. On the technique in general: Changes in cAMP serve as a functional read-out for many G protein-coupled receptors.

Another data set concerns the target T2, SSTR5 (Homo sapiens, UniProt P35346).
T2 construct: expressed in transfected cells; host or cells: HEK-293T (CRL-3216)
Described as above. Format: cell-based. The conditions noted are these: for binding against SSTR5 (in words): HEK293T cells expressing SSTR5, cAMP GloSensor. As for the experimental part: HEK-293T cells (CRL-3216 from ATCC, procured from NCCS, Pune) were co-transfected with human somatostatin receptor subtypes 2 & 5, plasmid cDNA, and cAMP biosensor (pGloSensorTM-22F plasmid; Promega Corp.) using PEImax. Ligand incubation was followed by the addition and incubation of forskolin (FSK) to the plate. Dose-dependent inhibition of forskolin-induced cAMP production by the peptide ligands was measured using a luminescence plate reader. An elaborate description of the assay setup has been provided in Supplementary Information.

A short description of the next data set: physchem. The conditions noted are these: pH 7.4.
Data set [3] can be described thus: in vitro. The conditions noted are these: both, human, plasma.
The nature of data set [4]: in vitro. The conditions noted are these: pig, simulated intestinal fluid.
Data set [5] can be described thus: in vitro. The conditions noted are these: both, human, plasma. The source holds these as a separate data set.
A further data set is described as follows: in vivo. The conditions noted are these: male, rat, sc; for half-life: Sprague-Dawley.
The subject of data set [6] is growth hormone (GH) release. The data set is described as follows: In vivo inhibition of growth hormone release (sandwich ELISA). Also on record: species or system rats. The conditions noted are these: for AUC 0_24: growth hormone AUC 0-24 h; for AUC 0_24 / AUC 0_48 / AUC 24_48: mean of n = 3; for AUC 0_48: growth hormone AUC 0-48 h; for AUC 24_48: growth hormone AUC 24-48 h. How it is done: In vivo inhibition of GH. Finally, we estimated the in vivo efficacy of 13 and the thioamidated analogs 13b, 13d, and 13e in suppressing the release of growth hormone (GH) post subcutaneous injection at 250 μg/kg dosage (Fig. 7e). 13a was also included as a negative control to assess its effect on GH release. The rats were bled from their orbital sinus, and the plasma GH levels were evaluated through sandwich ELISA. […] This correlates well with the high plasma concentration of 13 at the initial time points and a rapid drop within 2 h of s.c. administration (Fig. 7c). […] In contrast, the inhibitory effect lasts longer in 13b, 13d, and 13e showing a significant reduction in plasma GH levels within 24–48 h (Fig. 7h). […] The rapid drop in plasma concentration of 13 is responsible for its least in vivo efficacy.
Animal housing and acclimatization were done at Central Animal Facility, IISc Bangalore, as mentioned in the previous section, following protocols from the IEAC and CPCSEA. […] Samples were processed as discussed in Supplementary Information, and sandwich ELISA was performed to measure the growth hormone level in blood plasma. For acute toxicity, after peptide injection (s.c.), blood samples were collected on the 14th day for liver and kidney function tests.
For orientation: ELISA stands for enzyme-linked immunosorbent assay.

Starred links: 1 amine or outer side, 2 acyl side, 3 side chain; linkers in the order of their positions; H or OH if unused. Non-standard residues stand in square brackets, D forms with d. Residues, ends and D or L forms follow the SMILES beside them. X10 = NCCCC[C@H](NC(=S)[C@@H](Cc1c[nH]c2ccccc12)N[*:1])C(=O)[*:2]; X12 = C[C@@H](O)[C@H](N[*:1])C(=S)N[C@@H](Cc1ccccc1)C(=O)[*:2]; X7 = C[C@@H](O)[C@H](NC(=S)[C@H](CCCCN)N[*:1])C(=O)[*:2]; X8 = O=C([C@H](Cc1ccccc1)NC(=S)[C@@H]1CCCN1[*:1])[*:2]

T1 sequence (P30874 whole entry): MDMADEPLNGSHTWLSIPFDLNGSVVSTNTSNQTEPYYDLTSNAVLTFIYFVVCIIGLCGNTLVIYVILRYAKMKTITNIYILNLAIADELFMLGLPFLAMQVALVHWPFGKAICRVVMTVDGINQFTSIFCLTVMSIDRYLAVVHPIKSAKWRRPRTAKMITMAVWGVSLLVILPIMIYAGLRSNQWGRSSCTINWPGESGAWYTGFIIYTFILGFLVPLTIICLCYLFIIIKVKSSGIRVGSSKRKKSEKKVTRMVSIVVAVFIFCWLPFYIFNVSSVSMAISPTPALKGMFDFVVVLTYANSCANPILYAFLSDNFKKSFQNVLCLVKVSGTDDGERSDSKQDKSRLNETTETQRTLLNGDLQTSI
T2 sequence (P35346 whole entry): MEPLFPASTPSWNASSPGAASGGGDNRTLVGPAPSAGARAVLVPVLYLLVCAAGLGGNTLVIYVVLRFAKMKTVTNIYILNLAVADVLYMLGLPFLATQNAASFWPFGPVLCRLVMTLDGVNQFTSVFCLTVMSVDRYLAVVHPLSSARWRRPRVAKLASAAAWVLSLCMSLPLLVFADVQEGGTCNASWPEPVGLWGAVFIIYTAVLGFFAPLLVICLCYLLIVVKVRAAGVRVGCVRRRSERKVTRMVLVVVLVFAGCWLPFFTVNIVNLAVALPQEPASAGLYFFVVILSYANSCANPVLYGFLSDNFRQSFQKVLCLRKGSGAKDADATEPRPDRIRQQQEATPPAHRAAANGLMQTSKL

For orientation: Papp means a coefficient for how fast a substance crosses the barrier. A low value points to poor permeation. The logD is the decadic logarithm of the distribution of all forms, ionised or not, between an organic phase and buffer at a given pH. Usually fraction unbound stands for free concentration divided by total concentration. Low values mean little free substance, high ones much free substance. In general, half-life refers to the time in which the quantity being followed falls by half. The compound `C[C@@H](O)[C@@H]1NC(=O)[C@H](CCCCN)NC(=O)[C@@H](Cc2c[nH]c3ccccc23)NC(=O)[C@H](Cc2ccccc2)NC(=O)[C@@H]2CCCN2C(=O)[C@H](Cc2ccccc2)NC1=S` [13c] (cyclo(F[dW]K[X12]P)) showed a Papp in [1] of 0.96 ×10⁻⁶ cm/s. This compound also returned a logD heptane ethylene glycol in data set [2] of -1.18. Besides, on SSTR2, the “binding against SSTR2 (in words)” value is recorded as “complete loss in binding”. Besides, the “binding against SSTR5 (in words)” value on SSTR5 is “complete loss in binding”. In the data set “physchem”, the logD was -1.04. The compound further had a fraction unbound in the data set “in vitro [3]” of 0.21. Also, the half-life in “in vitro [4]” is 150 min; in the data set “in vitro [5]”, 1980 min.
One may read the IC50 as the concentration that inhibits the measured activity by half. Compound `C[C@@H](O)[C@@H]1NC(=O)[C@H](CCCCN)NC(=O)[C@@H](Cc2c[nH]c3ccccc23)NC(=O)[C@H](Cc2ccccc2)NC(=S)[C@@H]2CCCN2C(=O)[C@H](Cc2ccccc2)NC1=O` [13e] (cyclo(F[X8][dW]KT)) registered a Papp in data set [1] of 1.92 ×10⁻⁶ cm/s. Besides, in data set [2], the logD heptane ethylene glycol is -1.16. Moreover, the IC50 on SSTR2 worked out at 19.2 ± 11.4 nM; against SSTR5, 232 ± 70.4 nM. Further, the level at 0.5 h in the data set “in vivo” (Sprague Dawley) came out at 38.1 ng/mL. Further, in “in vivo” (Sprague Dawley), the level at 1 h is 57 ng/mL. The half-life was 36 ± 18 min in the data set “in vivo” and 1860 min in the data set “in vitro [5]”. Besides, the logD in the data set “physchem” was -0.72. In the data set “in vitro [3]”, this compound came in with a fraction unbound of 0.09.
Take `C[C@@H](O)[C@@H]1NC(=O)[C@H](CCCCN)NC(=S)[C@@H](Cc2c[nH]c3ccccc23)NC(=O)[C@H](Cc2ccccc2)NC(=O)[C@@H]2CCCN2C(=O)[C@H](Cc2ccccc2)NC1=O` [13a] (cyclo(FPF[X10]T)): the Papp in data set [1] stood at 2.45 ×10⁻⁶ cm/s. Moreover, in [2], the logD heptane ethylene glycol is -0.94. On SSTR2, the “binding against SSTR2 (in words)” value is “complete loss in binding” and the IC50 is more than 10000 nM. In addition, on SSTR5, the IC50 is more than 10000 nM and the “binding against SSTR5 (in words)” value is reported as “complete loss in binding”. Besides, in data set [6], the “AUC 0_24” value is 1085 ng·h/mL, the “AUC 0_48” value turned out to be 2274 ng·h/mL and the “AUC 24_48” value was determined as 1188 ng·h/mL. For the same compound, the “t1/2 in SIF” value in the data set on pancreatin was “over 72 h”. In the data set “in vivo” (Sprague Dawley), this compound gave a level at 0.5 h of 146 ng/mL and a level at 1 h of 107 ng/mL. Moreover, in “in vivo” (Sprague Dawley, 250 ug/kg), the level at 2 h was found to be 40 ng/mL. Besides, the half-life in “in vivo” was 42 ± 6 min. For the same compound, the logD in the data set “physchem” is -0.65. In the data set “in vitro [3]”, the fraction unbound was 0.11. In addition, the half-life in the data set “in vitro [5]” was 2040 min.
Take `C[C@@H](O)[C@@H]1NC(=S)[C@H](CCCCN)NC(=O)[C@@H](Cc2c[nH]c3ccccc23)NC(=O)[C@H](Cc2ccccc2)NC(=O)[C@@H]2CCCN2C(=O)[C@H](Cc2ccccc2)NC1=O` [13b] (cyclo(FPF[dW][X7])): the Papp in data set [1] turned out to be 2.92 ×10⁻⁶ cm/s. Further, the logD heptane ethylene glycol in data set [2] was -0.83. At SSTR2, the IC50 amounted to 15.6 ± 4.3 nM. Also, the IC50 against SSTR5 stood at 228 ± 41.9 nM. For the same compound, in data set [6], the “AUC 0_24” value is 436 ng·h/mL, the “AUC 0_48” value came out at 1134 ng·h/mL and the “AUC 24_48” value amounted to 668 ng·h/mL. Further, the “inhibition of unstimulated GH release” value in data set [6] (rats, 250 μg/kg s.c., plasma GH by sandwich ELISA over 48 h) is “significant inhibition”. Moreover, in the data set on pancreatin, the “t1/2 in SIF” value is listed as “over 72 h”. In the data set “in vivo” (Sprague Dawley), this compound returned a level at 0.5 h of 72 ng/mL and a level at 1 h of 44 ng/mL. This compound also had a half-life in the data set “in vivo” of 36 ± 12 min. The same compound came in with a logD in “physchem” of -0.64. In “in vitro [3]”, this compound gave a fraction unbound of 0.14. The compound also showed a half-life in the data set “in vitro [5]” of 1920 min.
